{"source": "patent US11103518B2", "about": "“Prostate cancer treatment via synergistic inhibition of aryl hydrocarbon receptor (AhR) and SRC” (Clark Atlanta University, Inc., priority 2016, dated 2021)", "key": {"[1]": {"tested_on": "AR", "test": "Nuclear and cytoplasmic fractionation with western blot, AR nuclear localization in C4-2 cells", "type": "cell-based, human", "conditions": "nuclear fraction normalized with topoisomerase, FIG. 1B", "experimental": "In order to address the role of AhR and SRC in this process, a sub-cellular localization was confirmed by immunoblotting following cellular fractionation. […] Cells were washed with cold PBS and cellular fractions were isolated per manufactures instructions using a NE-PER Extraction kit. The nuclear and cytoplasmic fractions were analyzed by western blotting for AhR and AR protein expression. The relative level of cytoplasmic AhR & AR were normalized with β-tubulin expression and the relative level of nuclear AhR & AR were normalized with topoisomerase expression. Blots are representative of three independent experiments."}, "[2]": {"tested_on": "AhR", "test": "Cignal XRE luciferase reporter assay in C4-2 cells", "type": "cell-based, human", "conditions": "C4-2 cells transfected with XRE reporter, FIG. 2A", "procedure": "XRE and ARE Binding: 4×10^4 Cells were plated in a 96 well plate. C4-2 cells were transfected with XRE and ARE reporter, as well as with positive and negative control reporter plasmids using attractene. After 16 hours of transfection, media was changed to standard assay media (DMEM+0.5% FBS+0.1 mM NEAA). Cells were grown for an additional 8 hours under normal cell conditions. After 24 hours of transfection, treat the cells and harvested cells 18 hours after treatment. A dual luciferase assay was performed after 42 hours of transfection, and promoter activity values are expressed as arbitrary florescence units (AFU). Experiments were performed in triplicate and the standard error is indicated.\nThe Cignal XRE and ARE luciferase reporter assays were utilized to determine the activity of AhR and AR signaling pathways in androgen independent (C4-2) prostate cancer cells in the presence and absence of inhibitors. C4-2 cells were transfected with an XRE reporter plasmid & ARE reporter plasmid, as well as with positive and negative control reporter plasmids using attractene. Following transfection, treatments were added to each appropriate plate. A dual luciferase assay was performed and promoter activity values are expressed as arbitrary florescence units (AFU)."}, "[3]": {"tested_on": "AR", "test": "Cignal ARE luciferase reporter assay in C4-2 cells", "type": "cell-based, human", "conditions": "C4-2 cells transfected with ARE reporter, FIG. 2B", "experimental": "The Cignal XRE and ARE luciferase reporter assays were utilized to determine the activity of AhR and AR signaling pathways in androgen independent (C4-2) prostate cancer cells in the presence and absence of inhibitors. C4-2 cells were transfected with an XRE reporter plasmid & ARE reporter plasmid, as well as with positive and negative control reporter plasmids using attractene. Following transfection, treatments were added to each appropriate plate. A dual luciferase assay was performed and promoter activity values are expressed as arbitrary florescence units (AFU). Each bar represents mean±SEM (n=3) and were analyzed by student t-test. (*) denotes statistically significant differences (*P<0.0001)."}, "[4]": {"tested_on": "C4-2 prostate cancer cells", "test": "Promega CellTiter 96 Cell Proliferation Assay", "type": "cell-based, human", "conditions": "50 μM CH223191, 30 μM PP2 alone or in combination"}, "[5]": {"tested_on": "C4-2 prostate cancer cells", "test": "Cell cycle analysis", "type": "cell-based, human", "conditions": "C4-2 cells, 72 hrs; 50 μM CH223191, 30 μM PP2 alone or in combination, FIG. 4B"}, "[6]": {"target": "T1, AhR (Homo sapiens, UniProt P35869)", "T1 sequence (P35869 11-848)": "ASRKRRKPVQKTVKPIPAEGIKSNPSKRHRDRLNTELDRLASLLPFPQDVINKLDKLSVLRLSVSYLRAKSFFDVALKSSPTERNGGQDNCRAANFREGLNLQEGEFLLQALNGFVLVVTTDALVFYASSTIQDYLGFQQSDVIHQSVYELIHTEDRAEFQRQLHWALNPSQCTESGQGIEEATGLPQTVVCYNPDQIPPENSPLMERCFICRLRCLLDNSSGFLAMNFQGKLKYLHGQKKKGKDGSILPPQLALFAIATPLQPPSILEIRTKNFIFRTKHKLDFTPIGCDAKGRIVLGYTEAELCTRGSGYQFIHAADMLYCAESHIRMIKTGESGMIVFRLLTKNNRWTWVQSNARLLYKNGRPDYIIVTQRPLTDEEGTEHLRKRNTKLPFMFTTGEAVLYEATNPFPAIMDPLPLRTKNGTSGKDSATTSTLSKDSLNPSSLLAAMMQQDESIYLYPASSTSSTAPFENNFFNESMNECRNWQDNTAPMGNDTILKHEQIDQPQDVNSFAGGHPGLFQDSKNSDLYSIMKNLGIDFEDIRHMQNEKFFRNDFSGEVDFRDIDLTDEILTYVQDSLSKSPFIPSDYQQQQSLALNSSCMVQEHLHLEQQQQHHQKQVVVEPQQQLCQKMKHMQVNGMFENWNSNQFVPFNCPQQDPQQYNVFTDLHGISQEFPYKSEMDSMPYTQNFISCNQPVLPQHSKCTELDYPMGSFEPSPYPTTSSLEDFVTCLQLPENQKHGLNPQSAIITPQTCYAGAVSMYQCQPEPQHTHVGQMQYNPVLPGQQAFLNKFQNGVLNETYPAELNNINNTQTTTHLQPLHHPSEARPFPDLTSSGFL", "conditions": "even at 100 micromolar; cited from earlier work"}, "[7]": {"target": "T1, AhR", "conditions": "cited from earlier work"}, "[8]": {"target": "T2, estrogen receptor (Homo sapiens, UniProt P03372)", "T2 sequence (P03372 1-595)": "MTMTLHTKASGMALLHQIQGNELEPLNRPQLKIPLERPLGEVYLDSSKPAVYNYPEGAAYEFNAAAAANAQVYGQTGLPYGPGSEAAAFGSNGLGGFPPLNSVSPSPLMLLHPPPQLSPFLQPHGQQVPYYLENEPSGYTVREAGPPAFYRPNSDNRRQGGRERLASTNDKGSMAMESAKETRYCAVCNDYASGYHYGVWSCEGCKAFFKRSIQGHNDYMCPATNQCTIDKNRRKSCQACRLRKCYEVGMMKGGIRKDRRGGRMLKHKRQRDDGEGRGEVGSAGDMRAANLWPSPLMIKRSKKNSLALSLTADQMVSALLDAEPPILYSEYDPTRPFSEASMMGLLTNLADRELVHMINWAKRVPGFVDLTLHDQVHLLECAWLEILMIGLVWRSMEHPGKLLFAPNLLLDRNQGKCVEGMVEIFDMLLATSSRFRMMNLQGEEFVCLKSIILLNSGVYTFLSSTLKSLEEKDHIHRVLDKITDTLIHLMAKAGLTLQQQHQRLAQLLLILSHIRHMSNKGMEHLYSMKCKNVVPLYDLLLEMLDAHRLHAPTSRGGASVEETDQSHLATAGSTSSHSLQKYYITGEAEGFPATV", "conditions": "cited from earlier work"}, "[9]": {"tested_on": "AR", "test": "qRT-PCR of AR mRNA expression in C4-2 cells", "conditions": "50 μM CH223191 or 30 μM PP2 alone or in combination, 72 h, normalized to L-19", "experimental": "(§1) RNA Extraction and Quantitative qRT-PCR Analysis: Total RNA was isolated from cell monolayers grown in 100 mm tissue culture dishes using RNeasy Mini Kit (Qiagen). 2 μg of the total RNA was reverse-transcribed using the Superscript II kit (Invitrogen), according to the manufacturer's recommendations. The cDNA served as a template in a 25 μl reaction mixture and was processed using the following protocol: an initial denaturation at 95° C. for 3 min, followed by 39 amplification cycles (95° C. for 10 s and 55-65° C. for 30 s), 95° C. for 10 s, 65° C. for 5 s and 95° C. for 50 s. The 25 μl qPCR reaction mixture was mixed with GoTaq qPCR Master Mix (Promega). Melt curve analyses were performed after each run to ensure a single product. Relative gene expression was determined using the ΔΔCq calculation method.\n(§2) Primers to amplify the 470-bp cDNA fragment encoding L19 were used as an internal control. L-19: Forward (5′-3′) [sequence] & Reverse (5′-3′) [sequence].\n(§3) Each bar represents mean±SEM (n=3) and were analyzed by student t-test. (*) denotes statistically significant differences (*P<0.05) compared to control."}, "[10]": {"tested_on": "AhR", "test": "qRT-PCR of AhR mRNA expression in C4-2 cells", "conditions": "50 μM CH223191 or 30 μM PP2 alone or in combination, 72 h, normalized to L-19", "experimental": "as §1, §2, §3"}, "[11]": {"tested_on": "KLK3", "conditions": "C4-2 cells, 50 μM CH223191 or 30 μM PP2 alone or in combination, 72 h, normalized to L-19", "experimental": "as §1, §2, §3"}, "[12]": {"tested_on": "CYP1B1", "test": "qRT-PCR of CYP1B1 mRNA expression in C4-2 cells", "conditions": "50 μM CH223191 or 30 μM PP2 alone or in combination, 72 h, normalized to L-19", "experimental": "as §1, §2, §3"}}}
{"smiles": "Cc1ccccc1/N=N/c1ccc(NC(=O)c2ccnn2C)c(C)c1", "note": "[CH223191, 2-Methyl-2H-pyrazole-3-carboxylic acid (2-methyl-4-o-tolylazo-phenyl)-amide]", "values": [{"measurement": "presence of AR in the nucleus (AR nuclear localization)", "setting": "[1]", "value": "reduced"}, {"measurement": "decrease in AhR promoter activity (XRE binding) compared to DMSO", "setting": "[2]", "value": 30, "unit": "%"}, {"measurement": "reduction of AR promoter activity compared to DMSO in ARE binding assay", "setting": "[3]", "value": 70, "unit": "%"}, {"measurement": "growth of C4-2 cells", "setting": "[4]; 48 and 72 hours", "value": "significantly inhibited"}, {"measurement": "decrease in overall growth rate compared to DMSO", "setting": "[4]; after 72 hours of exposure", "value": 25, "unit": "%"}, {"measurement": "percent of cells in the G0/G1 phase of the cell cycle", "setting": "[5]", "value": "increase"}, {"measurement": "stimulation of AhR-dependent transcription (agonist activity)", "setting": "[6]", "value": "did not stimulate"}, {"measurement": "TCDD-mediated nuclear translocation and DNA binding of AhR", "setting": "[7]", "value": "inhibited"}, {"measurement": "affinity for the estrogen receptor", "setting": "[8]", "value": "no affinity"}, {"measurement": "reduction of AR gene expression", "setting": "[9]", "value": 60, "unit": "%"}, {"measurement": "reduction of AhR gene expression compared to control", "setting": "[10]", "value": "more than twofold"}, {"measurement": "decrease in KLK3 mRNA expression", "setting": "[11]", "value": 65, "unit": "%"}, {"measurement": "reduction of CYP1B1 gene expression compared to control", "setting": "[12]", "value": "more than twofold"}]}
